Assay results: patent US20250312497A1, “METHOD OF TREATING PROSTATE CANCER” (Novartis AG, priority 2022, published 2025)

Experiments:
[1] = tested on: PSMA-positive metastatic castration-resistant prostate cancer (mCRPC); experiment: PSMAfore phase III: overall survival (OS), interim analysis; format: in vivo, human; details: first interim analysis DCO 2 Oct 2022
Description: After radiographic progression, follow up for survival will continue.
OS is hierarchically tested based on a three-look group sequential design using a Lan DeMets (O'Brien Flemming) alpha spending function. The final OS analysis was not planned to be performed at the time of the interim rPFS analysis, which is reported in this FIR.
Following the hierarchical testing strategy defined in the study protocol, OS was tested once rPFS was statistically significant. The one-sided alpha level (<0.000000001012) required for a significant OS difference in this first interim analysis was calculated from the pre-specified alpha spending function and the number of events observed at the time of rPFS analysis.
Results in terms of the OS at the time of the first interim OS analysis are based on 13.5% (40/297 deaths).
The second interim analysis for OS is planned after additional follow up when approximately 75% (223/297) of the targeted number of deaths/events have occurred. If OS is not statistically significant at the second interim analysis, a final analysis is planned when approximately 297 deaths have been recorded.

[2] = tested on: metastatic castration-resistant prostate cancer; details: cited from earlier work
[3] = tested on: PSMA-positive metastatic castration-resistant prostate cancer (mCRPC); experiment: PSMAfore phase III: best overall radiological response (soft tissue and bone) by BICR; format: in vivo, human; details: results update
Description: Best overall radiological response accounting for soft tissue and bone disease based on BICR (Recist analysis set—participants with measurable disease at baseline)
Responses are based on soft tissue assessment and bone lesion progression. Best overall responses of CR and PR were confirmed by repeat assessments that were performed not less than 4 weeks after the criteria for response were first met.
CR may include participants with residual but non-progressive bone disease.

[4] = excretory mechanisms, kidneys (Kratochwil et al 2016); cited from earlier work
[5] = tested on: PSMA-positive metastatic castration-resistant prostate cancer; details: cited from earlier work
mCRPC participants = details: cited from earlier work
[6] = Recist analysis set, measurable disease at baseline, BICR

O=C([O-])CN1CCN(CC(=O)[O-])CCN(CC(=O)NCC2CCC(C(=O)N[C@@H](Cc3ccc4ccccc4c3)C(=O)NCCCC[C@H](NC(=O)N[C@@H](CCC(=O)O)C(=O)O)C(=O)O)CC2)CCN(CC(=O)[O-])CC1.[177Lu+3] (some centres unmarked) [[177Lu]Lu-PSMA-617, lutetium (177Lu) vipivotide tetraxetan]
median OS (95% CI) ([1]; Kaplan-Meier): NE [12.16, NE] | OS: Number of events ([1]; full analysis set): 20 (8.6) n(%) | objective response rate in measurable disease by RECIST (CR and PR) ([2]; 27 participants with measurable disease): 56% | median overall survival ([2]; 95% CI 10.5-18.0): 13.3 months | participants with reduction of PSA of 80% or more ([2]; up to 4 cycles of 4-8 GBq every 6 weeks): 44% | participants with PSA response (reduction in PSA of at least 50%) ([2]; up to 4 cycles of 4-8 GBq every 6 weeks, post-taxane, post abiraterone/enzalutamide): 64% | Best overall response: Complete response (CR) [3, 6]: 15 (21.1) n (%) | Best overall response: Partial response (PR) [3, 6]: 20 (28.2) n (%) | Best overall response: Progressive disease (PD) [3, 6]: 14 (19.7) n (%) | Best overall response: Unknown (UNK) [3, 6]: 2 (2.8) n (%) | Disease Control Rate (DCR: CR + PR + SD) [3, 6]: 55 (77.5) n (%) | Overall Response Rate (ORR: CR + PR) [3, 6]: 35 (49.3) n (%) | rDCR compared to ARDT [3]: a higher rDCR compared to ARDT | rORR compared to ARDT [3]: at least three times higher rORR compared to ARDT | injected dose cleared within 48 hours [4]: approximately 50% | TEAE anemia ([5]; VISION): 31.8% | TEAE arthralgia ([5]; VISION): 22.3% | TEAE back pain ([5]; VISION): 23.4% | TEAE constipation ([5]; VISION): 20.2% | TEAE decreased appetite ([5]; VISION): 21.2% | TEAE diarrhea ([5]; VISION): 18.9% | TEAE dry mouth ([5]; VISION): 38.8% | TEAE fatigue ([5]; VISION): 43.1% | TEAE leukopenia ([5]; VISION): 12.5% | TEAE lymphopenia ([5]; VISION): 14.2% | TEAE nausea ([5]; VISION): 35.3% | TEAE thrombocytopenia ([5]; VISION): 17.2% | TEAE vomiting ([5]; VISION): 18.9% | patients reporting treatment-emergent adverse events (TEAEs) ([5]; as of 27 Jan 2021, 519 patients): 98.1% | incidence of adverse events of grade 3 or above ([5]; as of 27 Jan 2021): 52.7% | Grade 3/4 nephrotoxicity (mCRPC participants; literature): no reports of Grade 3/4 nephrotoxicity | rate of xerostomia in treated participants (mCRPC participants; prospective study, low grade): approximately 87%
